Results: PMC7549094 (Journal of Medicinal Chemistry, 2020)

How the values were obtained:
[1] = microsomal extraction ratio, 1 h incubation in microsomes
[2] = microsomal extraction ratio, 1 h incubation in microsomes; remark: listed apart in the source
L. major = experiment: BALB/c mouse lesion cure model of Old World cutaneous leishmaniasis; assay type: in vivo; details: BALB/c mice infected with L. major; 20 mg/kg b.i.d. PO, 10 days
Source text: Data in the graph show progression of lesion sizes at the base of the tail of BALB/c mice infected with 1 × 10^7L. major parasites after 10 days of treatment. Experimental time points represent the mean lesion sizes ± SEM (n = 6). Single-factor ANOVA (Dunnet’s test) was used to determine the statistical significance of differences in lesion sizes between vehicle and compound-treated groups (P < 0.05).
Lesion cure model of Old World leishmaniasis (L. major). Female BALB/c mice (6 weeks old) were
used in this model. Mice were infected intradermally at base of the tail with 100 µl parasite culture
containing 1x107 L. major MHOM/IR/-/173 stationary phase promastigotes. Starting from the third week
post-infection, the lesion induration diameters (length=D1 and width=D2) were measured using a caliper
instrument (Fisher Scientific, USA) with 0.1 mm sensitivity. Length and width measurements were taken to account for asymmetrical lesions. Lesion size area was then calculated using the πR1*R2 formula
(where R1=D1/2 and R2 = D2/2). Lesions were measured at a 10 -day (+/- 2 days) interval until the end
of the study. Experimental endpoint is lesion cure or % lesion size re duction relative to lesion size in
vehicle-treated group. Lesion cure is considered 100% re-epithelialization of the lesion (lesion size = 0
10 mg/kg and 20 mg/kg twice-daily). In a positive control treatment group, animals were dosed by […]

[3] = in vivo micronucleus (MNT) study in rat
[4] = metabolite profile in mouse hepatocytes; assay type: in vitro ADME; details: 10 μM of 1 for 4 h, UV 250 nm, normalized to largest peak
[5] = metabolite profile in rat hepatocytes; assay type: in vitro ADME; details: 10 μM of 1 for 4 h, UV 250 nm, normalized to largest peak
[6] = metabolite profile in dog hepatocytes; assay type: in vitro ADME; details: 10 μM of 1 for 4 h, UV 250 nm, normalized to largest peak
human CYP2D6 = human CYP2D6 (Homo sapiens, UniProt P10635); details: human recombinant CYP; 1 µM, 30 min
human CYP2D6, sequence (P10635 whole entry): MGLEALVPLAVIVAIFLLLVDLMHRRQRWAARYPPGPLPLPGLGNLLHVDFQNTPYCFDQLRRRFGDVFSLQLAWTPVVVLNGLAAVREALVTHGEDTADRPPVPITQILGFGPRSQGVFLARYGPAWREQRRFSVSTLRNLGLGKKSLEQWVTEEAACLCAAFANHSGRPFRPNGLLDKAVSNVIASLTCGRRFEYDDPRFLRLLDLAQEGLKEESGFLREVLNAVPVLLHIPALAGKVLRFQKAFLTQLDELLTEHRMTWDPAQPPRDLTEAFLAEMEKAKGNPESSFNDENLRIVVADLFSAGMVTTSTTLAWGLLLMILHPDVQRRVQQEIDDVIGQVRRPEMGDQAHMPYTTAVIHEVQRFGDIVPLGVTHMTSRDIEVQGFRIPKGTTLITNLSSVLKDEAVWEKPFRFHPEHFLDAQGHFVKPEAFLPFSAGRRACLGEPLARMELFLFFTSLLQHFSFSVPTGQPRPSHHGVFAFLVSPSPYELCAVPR

hr D2 = hr D2 (Homo sapiens, UniProt P14416); experiment: receptor profile (Table S4); assay type: binding
hr D2, sequence (P14416 whole entry): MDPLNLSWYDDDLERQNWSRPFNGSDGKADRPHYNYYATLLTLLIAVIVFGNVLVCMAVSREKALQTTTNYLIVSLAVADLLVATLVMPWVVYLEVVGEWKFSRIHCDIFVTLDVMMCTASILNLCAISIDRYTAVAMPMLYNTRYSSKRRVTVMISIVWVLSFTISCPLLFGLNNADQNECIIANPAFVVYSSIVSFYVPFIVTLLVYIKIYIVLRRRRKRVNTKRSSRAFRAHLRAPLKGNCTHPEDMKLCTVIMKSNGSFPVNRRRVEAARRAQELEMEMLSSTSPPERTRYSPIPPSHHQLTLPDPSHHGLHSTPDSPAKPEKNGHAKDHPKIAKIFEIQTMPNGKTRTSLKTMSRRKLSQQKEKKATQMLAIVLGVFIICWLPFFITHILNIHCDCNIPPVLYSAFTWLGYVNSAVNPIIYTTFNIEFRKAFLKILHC

hr 5-HT1A ag = molecular target: T1, hr 5-HT1A ag (Homo sapiens, UniProt P08908); experiment: receptor profile (Table S4); assay type: biochemical
T1 sequence (P08908 1-422): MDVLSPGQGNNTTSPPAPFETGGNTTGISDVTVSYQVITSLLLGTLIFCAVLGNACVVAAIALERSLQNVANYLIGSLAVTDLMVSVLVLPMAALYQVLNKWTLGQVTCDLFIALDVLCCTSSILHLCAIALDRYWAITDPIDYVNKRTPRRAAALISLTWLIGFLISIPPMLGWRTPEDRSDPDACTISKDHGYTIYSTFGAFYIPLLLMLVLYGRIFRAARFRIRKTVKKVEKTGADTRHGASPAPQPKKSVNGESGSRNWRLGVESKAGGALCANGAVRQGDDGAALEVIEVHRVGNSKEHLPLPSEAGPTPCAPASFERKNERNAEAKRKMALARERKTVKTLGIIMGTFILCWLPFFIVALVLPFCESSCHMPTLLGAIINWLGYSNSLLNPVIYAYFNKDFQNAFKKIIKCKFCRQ

hr PR ag = molecular target: T2, hr PR ag (Homo sapiens, UniProt P06401); experiment: receptor profile (Table S4); assay type: biochemical
T2 sequence (P06401 1-933): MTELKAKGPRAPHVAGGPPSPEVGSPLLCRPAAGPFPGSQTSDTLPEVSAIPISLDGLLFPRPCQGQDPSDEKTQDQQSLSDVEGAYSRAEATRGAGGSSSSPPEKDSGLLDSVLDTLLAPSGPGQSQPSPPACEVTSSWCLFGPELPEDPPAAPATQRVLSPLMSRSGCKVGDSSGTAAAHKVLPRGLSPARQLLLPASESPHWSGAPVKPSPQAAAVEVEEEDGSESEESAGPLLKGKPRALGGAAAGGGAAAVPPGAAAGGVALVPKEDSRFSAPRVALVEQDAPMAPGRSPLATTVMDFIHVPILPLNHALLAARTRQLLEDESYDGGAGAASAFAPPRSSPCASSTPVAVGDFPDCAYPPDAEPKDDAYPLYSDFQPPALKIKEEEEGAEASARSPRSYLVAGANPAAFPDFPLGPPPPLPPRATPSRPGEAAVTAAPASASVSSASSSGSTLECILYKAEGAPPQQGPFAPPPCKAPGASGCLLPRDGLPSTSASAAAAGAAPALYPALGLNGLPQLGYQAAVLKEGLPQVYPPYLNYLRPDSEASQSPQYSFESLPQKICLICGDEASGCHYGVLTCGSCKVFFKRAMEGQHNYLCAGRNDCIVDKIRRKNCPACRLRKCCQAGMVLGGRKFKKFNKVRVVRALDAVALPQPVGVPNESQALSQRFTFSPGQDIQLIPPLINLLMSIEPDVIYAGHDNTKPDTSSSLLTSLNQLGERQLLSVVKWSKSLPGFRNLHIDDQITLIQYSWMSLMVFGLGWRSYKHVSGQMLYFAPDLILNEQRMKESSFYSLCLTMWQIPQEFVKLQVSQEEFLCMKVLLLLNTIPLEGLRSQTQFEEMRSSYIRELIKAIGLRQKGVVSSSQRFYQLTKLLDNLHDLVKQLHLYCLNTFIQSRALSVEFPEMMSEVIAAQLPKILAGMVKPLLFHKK

hr MC3 = hr MC3 (Homo sapiens, UniProt P41968); experiment: receptor profile (Table S4); assay type: binding
hr MC3, sequence (P41968 whole entry): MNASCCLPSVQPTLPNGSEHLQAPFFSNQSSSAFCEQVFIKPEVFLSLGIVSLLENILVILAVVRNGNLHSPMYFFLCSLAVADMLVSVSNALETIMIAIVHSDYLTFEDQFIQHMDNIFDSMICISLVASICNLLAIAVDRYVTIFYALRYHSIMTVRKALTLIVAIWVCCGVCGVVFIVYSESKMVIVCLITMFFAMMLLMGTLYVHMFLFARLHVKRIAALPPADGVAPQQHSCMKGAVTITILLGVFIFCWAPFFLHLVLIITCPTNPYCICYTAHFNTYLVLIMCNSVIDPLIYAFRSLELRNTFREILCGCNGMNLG

in vivo [7] = details: male, Sprague-Dawley, rat
in vivo [8] = details: male, dog, plasma
Procedure: In Vivo PK Studies in Mice.
The solution was filtered using a 0.45 m syringe filter before dosing. Two male Balb/c mice were administered 1 intravenously via the lateral tail
vein at 5 mg/kg with a dose volume of 2.0 mL/kg. 1 was also formulated in a suspension of 0.5%
methylcellulose with 0.5% Tween 80 (0.5% MC/0.5% Tw80) in water at 2.5 mg/mL. A group of mice
(n=3) were administered 1 orally via gavage at 20 mg/kg with a dose volume of 8.0 mL/kg.
The mouse blood samples were centrifuged to separate plasma and the plasma samples were frozen at -
In Vivo PK Studies in Rats.
Two male Wistar rats were administered
1 intravenously via the lateral tail vein at 3 mg/kg with a dose volume of 1.0 mL/kg. 1 was also formulated
in a suspension of 0.5% methylcellulose with 0.5% Tween 80 (0.5% MC/0.5% Tw80) in water at 2.0
mg/mL. The second group of rats (n=3) were administered 1 orally via gavage at 10 mg/kg in suspension
with a dose volume of 5.0 mL/kg. Six blood samples of 100 μL each were collected serially from each
animal via the saphenous vein up to 24 hours after dosing. The rat blood samples were centrifuged to
separate plasma and the plasma samples were frozen at -20°C until analysis.
In Vivo PK Studies in Dogs.
The solution was filtered using a 0.45 m syringe filter before dosing. Three male Beagle dogs were administered 1 intravenously via saphenous
vein at 0.3 mg/kg with a dose volume of 0.1 mL/kg. 1 was also formulated in a suspension of 0.5%
methylcellulose with 0.5% Tween 80 (0.5%MC/0.5% Tween 80) in water at 1.0 mg/mL. The second
group of male dogs (n=2) were administered 1- orally via gavage at 1.0 mg/kg with a dose volume of 1.0
mL/kg. Seven blood samples of 250 µL each were collected serially from each animal via the jugular vein
The dog blood samples were centrifuged to separate plasma and the plasma
samples were frozen at -20 °C until analysis.

PXR = PXR (Homo sapiens, UniProt O75469); experiment: receptor profile (Table S4); details: human
PXR, sequence (O75469 whole entry): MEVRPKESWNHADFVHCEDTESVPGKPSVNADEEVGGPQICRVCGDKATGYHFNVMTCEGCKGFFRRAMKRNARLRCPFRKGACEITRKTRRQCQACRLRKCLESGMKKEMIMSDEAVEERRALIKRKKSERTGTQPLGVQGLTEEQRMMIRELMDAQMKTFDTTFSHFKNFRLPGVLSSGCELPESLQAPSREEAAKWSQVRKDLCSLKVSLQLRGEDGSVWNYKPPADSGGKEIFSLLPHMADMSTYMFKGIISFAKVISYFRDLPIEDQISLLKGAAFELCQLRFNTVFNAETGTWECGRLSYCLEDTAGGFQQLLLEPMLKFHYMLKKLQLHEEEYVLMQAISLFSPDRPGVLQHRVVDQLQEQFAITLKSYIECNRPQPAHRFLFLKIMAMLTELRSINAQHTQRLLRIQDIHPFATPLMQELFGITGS

hr PXR antag = hr PXR antag (Homo sapiens, UniProt O75469); experiment: receptor profile (Table S4); details: hr PXR antag
hr PXR antag, sequence (O75469 whole entry): as above

BSEP = BSEP (Homo sapiens, UniProt O95342); experiment: receptor profile (Table S4), first BSEP line
BSEP, sequence (O95342 whole entry): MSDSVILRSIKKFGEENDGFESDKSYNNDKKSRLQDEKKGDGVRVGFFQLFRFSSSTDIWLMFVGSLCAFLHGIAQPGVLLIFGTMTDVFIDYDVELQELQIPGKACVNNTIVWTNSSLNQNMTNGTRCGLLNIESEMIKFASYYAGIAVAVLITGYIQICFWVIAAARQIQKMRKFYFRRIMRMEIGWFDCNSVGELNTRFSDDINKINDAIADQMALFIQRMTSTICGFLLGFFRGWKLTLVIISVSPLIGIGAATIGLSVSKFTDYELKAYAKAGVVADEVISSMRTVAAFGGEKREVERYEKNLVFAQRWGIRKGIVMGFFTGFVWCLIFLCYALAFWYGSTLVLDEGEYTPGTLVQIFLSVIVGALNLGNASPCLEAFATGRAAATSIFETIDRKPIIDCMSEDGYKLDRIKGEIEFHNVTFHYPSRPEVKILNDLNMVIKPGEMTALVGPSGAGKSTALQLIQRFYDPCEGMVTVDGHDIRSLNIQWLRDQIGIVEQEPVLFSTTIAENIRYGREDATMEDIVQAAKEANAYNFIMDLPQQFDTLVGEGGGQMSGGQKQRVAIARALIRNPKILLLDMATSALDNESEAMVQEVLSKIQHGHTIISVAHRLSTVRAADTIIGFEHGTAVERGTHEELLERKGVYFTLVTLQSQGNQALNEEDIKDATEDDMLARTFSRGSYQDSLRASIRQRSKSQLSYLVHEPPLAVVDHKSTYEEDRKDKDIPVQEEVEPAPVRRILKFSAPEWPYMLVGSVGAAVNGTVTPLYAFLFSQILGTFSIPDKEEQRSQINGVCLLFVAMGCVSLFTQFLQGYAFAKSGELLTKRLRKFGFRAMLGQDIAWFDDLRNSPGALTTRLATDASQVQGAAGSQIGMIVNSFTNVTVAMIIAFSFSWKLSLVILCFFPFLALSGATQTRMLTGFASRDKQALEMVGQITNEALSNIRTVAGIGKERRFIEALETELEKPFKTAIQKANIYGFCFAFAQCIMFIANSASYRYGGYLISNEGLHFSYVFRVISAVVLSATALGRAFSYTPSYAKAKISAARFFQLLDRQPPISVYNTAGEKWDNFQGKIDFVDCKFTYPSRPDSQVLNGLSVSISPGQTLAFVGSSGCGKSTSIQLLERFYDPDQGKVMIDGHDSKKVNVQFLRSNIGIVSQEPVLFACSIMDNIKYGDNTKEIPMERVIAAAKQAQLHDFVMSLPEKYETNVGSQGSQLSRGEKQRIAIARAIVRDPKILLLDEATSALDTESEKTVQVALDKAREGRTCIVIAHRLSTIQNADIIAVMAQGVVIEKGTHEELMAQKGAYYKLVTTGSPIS

## Cc1nc(C)c(C(=O)Nc2ccc(F)c(-c3nc4ncc(-c5ncccc5C)cn4n3)c2)o1 [compound 1, N-(4-Fluoro-3-(6-(3-methylpyridin-2-yl)-[1,2,4]triazolo[1,5-a]pyrimidin-2-yl)phenyl)-2,4-dimethyloxazole-5-carboxamide]
[1]
  ER mouse: < 0.21
[2]
  ER rat: < 0.18
L. major
  therapeutic effect on skin lesions: comparable to that of liposomal amphotericin B
[3]
  micronucleus (MNT), risk of clastogenicity: did not indicate a risk
[4]
  abundance mouse: +++ (+++ > 75%)
[5]
  abundance rat: +++ (+++ > 75%)
[6]
  abundance dog: +++ (+++ > 75%)
Human CYP2D6
  substrate of human CYP2D6: not a substrate
Hr D2; hr D2
  EC50/IC50: > 30 µM
Hr D2; read-out: % inh/act @ 10 µM
  inhibition at 10 µM: 7%
Hr D2; read-out: % inh/act @ 30 µM
  inhibition at 30 µM: 15%
Hr 5-HT1A ag; hr 5-HT1A ag
  EC50/IC50: > 30 µM
Hr 5-HT1A ag; read-out: % inh/act @ 10 µM
  inhibition at 10 µM: 1%
Hr 5-HT1A ag; read-out: % inh/act @ 30 µM
  inhibition at 30 µM: 1%
Hr PR ag; hr PR ag
  EC50/IC50: > 30 µM
Hr PR ag; read-out: % inh/act @ 10 µM
  inhibition at 10 µM: -2%
Hr PR ag; read-out: % inh/act @ 30 µM
  inhibition at 30 µM: 0%
Hr MC3; hr MC3
  EC50/IC50: > 30 µM
Hr MC3; read-out: % inh/act @ 10 µM
  inhibition at 10 µM: 10%
Hr MC3; read-out: % inh/act @ 30 µM
  inhibition at 30 µM: 24%
In vivo [7]; in vivo, iv, 3 mg/kg
  clearance: 2.1 mL/min/kg
In vivo [7]; plasma, iv, 3 mg/kg
  MRT: 4.3 h
  Vd: 0.53 L/kg
  half-life: 3.8 h
In vivo [7]; plasma, po, 10 mg/kg
  bioavailability: 67%
In vivo [8]; Beagle, po, 1 mg/kg
  bioavailability: 44%
In vivo [8]; beagle, iv, 0.3 mg/kg
  MRT: 3.3 h
  Vd: 2.1 L/kg
  clearance: 11.6 mL/min/kg
  half-life: 3.8 h
PXR
  inhibition at 10 µM: 26%
Hr PXR antag
  EC50/IC50: > 30 µM
BSEP
  inhibition at 10 µM: 28%
  inhibition at 30 µM: 45%
